Source: a melting point compilation (Tetko et al.; mined from patent text by program, amines drawn as free bases though some values may be those of a salt)

melting point [°C] | Structure (SMILES)
152 to 155 | COc1cc(N2CCN(c3c(C)c(C)c4c(c3C)CC(C)(C)O4)CC2)ccc1F
175 to 176 | O=C(NC(C(=O)O)C1CC(Cl)=NO1)OCC1c2ccccc2-c2ccccc21 (configuration not stated)
253 | O=C(O)c1ccc2c(c1)Sc1ccccc1O2
121 to 123 | O=C(Cl)c1sc2cc(Oc3ccccc3)ccc2c1Cl
97 | CCCn1c2ccccc2c2cc(C(=O)CC(C)=O)ccc21
266 to 267 | COC(=O)c1[nH]c2cccc3c2c1CCNC3=O
142 to 143 | CN(Cc1cc(C(F)(F)F)cc(C(F)(F)F)c1)C(=O)c1nc(Cl)c2ccccc2c1-c1ccc(F)cc1
79 to 81 | CSc1cc2c(cc1C(F)(F)F)N(C(=O)Nc1cccc(C(=O)NCCN3CCCCC3)c1)CC2
136 to 138 | O=c1c2cc(F)c(N3CCCC3)nc2n(-c2cccc(C(F)(F)F)c2)c(=O)n1O
129 to 131 | CC1(c2ccc(COc3ncc(Br)s3)cc2)OCCO1
109 to 111 | CS(=O)(=O)Nc1ccc(Cl)c(F)c1
120 to 122 | C[C@@]1(C(=O)O)CSC(Cc2cc(F)cc(F)c2)=N1
147 to 148 | CCOC(=O)c1c(CN(CC)CC)nc2sc3c(c2c1-c1ccc(OC)c(OC)c1)CCN(S(C)(=O)=O)C3
42 to 42.5 | CCc1ccc(-c2onc3ccccc23)cc1
223 to 226 | Cc1ccc(N2CC(=O)N(c3ccc(S(N)(=O)=O)cc3Cl)C2)cc1
145 to 147 | CC(C)=C(C#N)C(=O)OC(COc1ccc(C(=O)c2ccccc2)c(O)c1)COc1ccc(C(=O)c2ccccc2)c(O)c1
112 to 115 | C#CC(C)(C)N1CCC(N2CCN(CCCN3CCCCC3)C2=C(C#N)C#N)CC1

melting point [°C] | Structure (SMILES)
193 to 195 | COC(=O)c1cc(NC(=O)Nc2ccc([N+](=O)[O-])cc2)cc(C(=O)OC)c1
150 to 165 | OC(CNCCNc1ccc2[nH]ncc2c1)COc1ccccc1 (configuration not stated)
160 to 162 | Cc1cc(C)nc(-n2ccnc2S(=O)Cc2ccccc2NC=O)c1 (configuration not stated)
161 to 165 | Cc1nc(Cl)c([N+](=O)[O-])c(N2CCc3ccccc3CC2)n1
125 to 131 | COC(=O)c1c(C)c(OC)cc(O[Si](C)(C)C(C)(C)C)c1C=O
152 to 153 | Cc1oc(-c2ccco2)nc1COc1ccc(CCCC2OC(=O)NC2=O)cc1O (configuration not stated)
109 to 115 | COc1ccc(-c2c(N(C)C(C)C)c(=O)c2=O)cc1
251 to 253 | CCCc1nc2ccccc2c(=O)n1Cc1ccc(-c2ccccc2-c2nc(=O)o[nH]2)cc1
179 | COc1cc(NNc2nccc(Nc3ccc4nc(C)[nH]c4c3)n2)cc(OC)c1OC
145 to 148 | O=C(O)CCCCCCCc1ccc(CCNC(=O)c2ccc(Cl)cc2)cc1
81 to 83 | O=S(=O)(c1ccccc1)n1c(-c2cccc(C(O)c3cc4ccccc4n3S(=O)(=O)c3ccccc3)c2)cc2ccccc21 (configuration not stated)
92 to 94 | Cn1nc(-c2nc(C#CCO)c(Cl)cc2F)c(Cl)c1OC(F)F
163 to 165 | c1ccc2c(NC3CCCC3)nnc(Cc3ccncc3)c2c1
114 to 115 | CCOC(=O)Cn1nc2ccc(Cl)nn2c1=O
194 to 196 | Cc1ccccc1S(=O)(=O)NC(=O)Nc1cc(C)c(S(=O)(=O)C[N+](=O)[O-])c(C)c1
226 to 228 | c1cc(-c2cccc3ncoc23)c2ocnc2c1
78 to 80 | COc1ccc(Oc2c(C)cc(CO)cc2C)cc1C(C)C

The remaining lines, values behind:

Structure (SMILES) | melting point [°C]
CCC(=S)c1ccc(NS(C)(=O)=O)c(Oc2ccc(F)cc2F)c1 | 74 to 76
N#Cc1ccc(-c2cc3ccc(C#N)cc3[nH]2)cc1 | 270 to 275
O=C(NCCN1CCCCC1n1c(=O)[nH]c2ccccc21)c1cccc(F)c1 (configuration not stated) | 226
NNC(=O)c1ccccc1OCC(F)(F)F | 102 to 104
O=C(Nc1ccc(Br)c2ccccc12)c1cc(F)cc(N2CCOCC2)c1 | 187 to 189
COc1ccc([C@H]2Cc3c(cccc3C(F)(F)F)NC(=O)[C@H]2OC(=O)c2ccccc2C(=O)O)cc1 (relative stereo) | 161 to 162
COc1ccc(OC2COc3ccc(OCc4ccccc4)cc3C2=O)cc1 (configuration not stated) | 98 to 100
Cc1cc(C)c(-c2c(OCOCC(C)C)oc(-c3ccsc3)c(C)c2=O)c(C)c1 | 102 to 104
Oc1ccccc1-c1nc(-c2ccc(-c3ccccc3)cc2)nc(-c2ccc3ccccc3c2)n1 | 227 to 239
CCOC(=O)c1cccnc1Oc1cncc(Cl)c1 | 65 to 69
CCCCc1nn(-c2ccccc2C(F)(F)F)c(=O)n1Cc1ccc(-c2ccccc2S(=O)(=O)NC(=O)c2ccccc2Cl)cc1F | 88 to 90
CCOC(=O)C1=C2Nc3ccccc3N2CC1 | 269 to 271
CN(CC(=O)O)C(=S)c1cc(-c2ccccc2)nc2ccccc12 | 228 to 230
CC(=O)Nc1cc(CO)ccn1 | 145
CCc1cc2c(NCc3ccc4c(c3)OCO4)nc(Cl)nc2s1 | 148
CCc1ccc(CCc2ccc(-c3ccc(OC(F)(F)F)cc3)cc2)cc1 | 97
Nc1cccc(-c2ccc(CCN3CCN(c4nnnn4-c4ccc(F)cc4)CC3)cc2)n1 | 185 to 187
Brc1ccc(-c2cn([C@H]3CN4CCC3CC4)nn2)o1 | 144
Cc1cc(S(N)(=O)=O)n(C)n1 | 63 to 66
COc1cc2ncnc(N3CCC(O)(CCI)CC3)c2cc1OC | 179 to 181
CCOC(=O)Cc1ccc(NC(=O)Nc2ccccc2)cc1 | 153 to 155

Structure (SMILES) | melting point [°C]
O=C(Nc1n[nH]c2cc(Cl)ccc12)c1cc(Cl)cc(Cl)c1 | 240
Cc1c2n(c(=O)c3cc(OC(=O)CN)cc(OC(=O)CN)c13)CCCC2 | 163 to 164
CC1(C)Cc2sc3c(c2C1)CCNC3=O | 205 to 207
CC(C)(C)Cc1ccc(C#N)c(=O)[nH]1 | 211 to 212
Cc1cc(C)nc(NC(=O)NS(=O)(=O)c2c(Cl)c(C)nn2C)n1 | 191 to 194
CCCCOc1nn(-c2ccc(C(F)(F)F)cn2)cc1CCCOc1ccc(CCC(=O)O)c(OCC)c1 | 102 to 103
O=C1CCN(C(=O)N2CCN3C(=O)OC(c4ccccc4)(c4ccccc4)C3C2)c2ccccc21 (configuration not stated) | 202 to 205
CNc1nc(-c2cccc(C=O)c2)c2cc(OC)c(OC)cc2n1 | 110 to 112
C=CCN1C(=O)NC(=C(C(=O)OCC)C(=O)OCC)C1=O | 91 to 92
OCC1=C(c2cc3c(Cl)cccc3s2)N2CCN=C2S1 | 170 to 172
CC(C)Cn1c(=O)n(C)c(=O)c2c(-c3ccsc3)c(Cc3ccccc3C(F)(F)F)sc21 | 113 to 114
Cc1cc(C2=NOC(c3cc(Cl)cc(Cl)c3)(C(F)(F)F)C2)ccc1C(=O)NC1CSC1 (configuration not stated) | 158 to 159
COc1ccc(P2Oc3ccccc3-c3ccccc32)cc1 (configuration not stated) | 104 to 106
CCc1nc(-c2ccc(OCCCN3C(=O)c4ccccc4C3=O)cc2)no1 | 135 to 136
COc1ccc(N2C(=O)N(c3cccc(C(N)=O)c3)c3nc(Nc4ccccc4)ncc3C2C)c(F)c1 (configuration not stated) | 282 to 286
CC#CCOc1ccc(S(=O)(=O)C(C(=O)NO)c2ccc(Br)cc2)cc1 (configuration not stated) | 187
COC(=O)/C(=C/c1ccc(OCc2ccccc2)c([N+](=O)[O-])c1)N=[N+]=[N-] | 95 to 96
CCCOC(=O)c1cn(CC)c2nc(N3CCNCC3)c(F)cc2c1=O | 133 to 135
O=C(Cc1ccc(O)cc1)NC1CCN(Cc2ccc(Cl)c(Cl)c2)CC1 | 72 to 97
Cc1cccc2c(CCN3CCCCC3)c(-c3ccccc3)[nH]c12 | 159 to 161
CC1(C)CC(NC=O)CC(C)(C)N1 | 153

Structure (SMILES) | melting point [°C]
COc1cc(C(=O)c2c(C)c(OCCO)c3ccccn23)ccc1[N+](=O)[O-] | 142
O=S(=O)(Cc1n[nH]c(-c2cccs2)n1)c1ccccc1 | 191 to 193
Cc1c(-c2ccc(OCc3ccccc3)cc2)n(Cc2ccc(OCCCCl)cc2)c2ccc(OCc3ccccc3)cc12 | 130 to 132
N=C(N)N(CCCCc1ccc(OCC(=O)Nc2ccccc2)cc1)C(=O)c1nc(Cl)c(N)nc1N | 168 to 170
COc1ccc(-n2c(=O)cc(C)c3c(=O)n(-c4ccccc4)[nH]c32)cc1 | 189 to 190
CC(=O)c1c(CBr)c(CBr)c(C(C)=O)c2c1C(=O)c1ccccc1C2=O | 225 to 227
COC(=O)[C@@H]1CCCN1S(=O)(=O)c1ccc(C)c(C(=O)Cl)c1C | 92
NC(=O)c1cccc(-c2cccc3cc(Cc4cccc(C(F)(F)F)c4)sc23)c1 | 153 to 154
COC(=O)C=Cc1ccc(OCc2nc(-c3ccco3)oc2C)c(OC)c1 | 129 to 130
CC(C)Oc1c(C(=O)O)oc(C(=O)O)c1OC(C)C | 131 to 132
COC(=O)[C@](C)(Cc1ccc(N(C(=O)OC(C)(C)C)C(=O)C2CCNCC2)cc1)n1nnnc1C1CCCN1S(=O)(=O)c1ccc(C)cc1 (some centres not stated) | 92 to 102
O=C1Nc2cccnc2N(C(=O)N2CCCC(CCCCN3CCCC3)C2)c2ccccc21 (configuration not stated) | 153 to 156
COc1ccc(CN2C(=O)C3CC(c4ccc([N+](=O)[O-])cc4)(C3)C2=O)cc1 | 146 to 147
CC1CN(c2nc(Cl)nc(C(C)O)n2)CC(C)N1 (configuration not stated) | 126 to 128
O=C(O)CN1C[C@@H](Cc2c[nH]c3ccccc23)N(C(=O)c2cc(C(F)(F)F)cc(C(F)(F)F)c2)CC1=O | > 220
Cc1nnc2n1-c1sc(C#Cc3ccccn3)cc1C(c1ccccc1Cl)=NC2 | 153 to 155
CN1C(=N)N(c2ccc(Cl)cc2)CC1=O | 182 to 184
COC(=O)CCCc1cc2nc(Cl)ccc2n1S(=O)(=O)c1ccc(-c2nccs2)cc1 | 101
CCOc1c(C=O)sc(NC(C)=O)c1C#N | 276 to 277
C#CCSc1ncn(C(=O)N(CC)CC)n1 | 67 to 69
N#Cc1c(-c2cccs2)nn(-c2ccccc2)c1N | 165 to 167
